Reference: BindingDB's records for doi:10.1006/bbrc.1993.2130 (National Children's Medical Research Center, 1993)

Molecular target: T1, Alpha-1A adrenergic receptor (Homo sapiens, UniProt P35348)
T1 sequence (P35348 whole entry): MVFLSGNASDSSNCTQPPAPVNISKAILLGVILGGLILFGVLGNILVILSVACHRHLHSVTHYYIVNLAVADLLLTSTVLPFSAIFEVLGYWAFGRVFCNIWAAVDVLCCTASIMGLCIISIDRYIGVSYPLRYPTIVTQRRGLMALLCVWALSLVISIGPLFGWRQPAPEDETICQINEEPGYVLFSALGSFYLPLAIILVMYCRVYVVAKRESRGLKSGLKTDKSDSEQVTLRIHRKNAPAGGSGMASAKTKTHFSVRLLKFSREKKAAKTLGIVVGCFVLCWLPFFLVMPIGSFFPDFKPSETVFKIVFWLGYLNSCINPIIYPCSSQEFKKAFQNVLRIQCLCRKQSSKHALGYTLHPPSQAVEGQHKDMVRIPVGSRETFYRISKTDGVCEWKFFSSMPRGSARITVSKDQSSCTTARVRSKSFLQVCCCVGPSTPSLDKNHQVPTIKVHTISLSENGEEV

SMILES | Ki [nM]
COc1ccc(OC)c(C(O)C(C)N)c1 (stereo not drawn) | > 10000
COc1cccc(OC)c1OCCNCC1Oc2ccccc2OC1c1ccccc1 (stereo not drawn) [NSC_185453] | 0.23
COc1ccccc1N1CCN(CCCNc2c(C)c(=O)n(C)c(=O)n2C)CC1 [Urapidil-5-methyl] | 4.2
